# Test results from EP0168181A1, “Cyclic amides” (IMPERIAL CHEMICAL INDUSTRIES PLC, priority 1984, dated 1986).
# Test system: aldose reductase
# Assay: in vivo aldose reductase inhibition in streptozotocin-diabetic rats (residual sorbitol in sciatic nerve)
# Details: oral dose necessary to reduce residual sorbitol level in sciatic nerve of dosed diabetic rat to level similar to normal undosed rat; dosed daily 2-5 days
# Description: Thus, rats are made diabetic (as evidenced by severe glucosuria being present) by dosing with streptozotocin. The animals are then dosed daily with the test compound for 2-5 days. The animals are then killed 2-4 hours after the final dose and the eye lenses and/or sciatic nerves are removed. After a standard work-up procedure the residual sorbitol levels in each tissue are determined by gas liquid chromatography after conversion to the poly-trimethylsilyl derivatives. Inhibition of aldose reductase in vivo is then assessed by comparing the residual sorbitol levels in tissues from the dosed diabetic group of rats with those of an undosed group of diabetic rats and an undosed, normal group of rats.
# In the above in vivo test, an effective dose (ED) may be defined as the oral dose necessary to reduce the residual sorbitol level in the sciatic nerve of a dosed rat to a level similar to that in sciatic nerve in a normal, undosed-rat.
row,Compound,oral ED
1,"O=C1CC2(C(=O)N1)C(=O)N(Cc1ccc(Br)cc1F)c1c(F)cccc12 (single isomer, unassigned) [l'-(4-bromo-2-fluorobenzyl)-7'-fluoro-spiro[pyrrolidine-3,3'-indolinel-2,2',5-trione]",approximately 5.6 mg./kg.
2,"O=C1CC2(C(=O)N1)C(=O)N(Cc1ccc(Br)cc1F)c1c(Cl)cccc12 (single isomer, unassigned) [1'-(4-bromo-2-fluorobenzyl)-7'-chloro-spiro[pyrrolidine-3,3'-indoline]-2,2'5-trione]",approximately 1.1 mg./kg.
